Test results taken from the NIST ThermoML archive (doi:10.1016/j.jct.2013.04.015).

Tests used:
[1] = for surface tension liquid-gas: Wilhelmy plate method
[2] = xn = mol fraction of the nth substance listed; settings: for surface tension liquid-gas: Wilhelmy plate method; for mass density: 101 kPa, Liquid, Vibrating tube method

O [water]
[1]
Settings | surface tension liquid-gas [mN/m]
298.15 K | 71.85
308.15 K | 70.48
318.15 K | 68.89

Settings | mass density [kg/m3]
[1], 308.15 K, 101 kPa, Liquid, Vibrating tube method | 994.1

CCCCn1cc[n+](C)c1.C[C@H](O)C(=O)[O-] [1-butyl-3-methylimidazolium L-lactate] + O
[2]
Settings | mass density, 298.15 K [kg/m3] | mass density, 308.15 K [kg/m3] | mass density, 318.15 K [kg/m3] | surface tension liquid-gas, 298.15 K [mN/m] | surface tension liquid-gas, 308.15 K [mN/m] | surface tension liquid-gas, 318.15 K [mN/m]
x1 = 0.0097 | – | – | – | 53.67 | 51.15 | 49.79
x1 = 0.0303 | – | – | – | 47.86 | 46.42 | 45.58
x1 = 0.0401 | – | – | – | 46.95 | 46.08 | 45.57
x1 = 0.0602 | – | – | – | 46.15 | 45.87 | 45.55
x1 = 0.0801 | – | – | – | 46.98 | 46.54 | 46.18
x1 = 0.1 | – | – | – | 46.96 | 46.83 | 46.15
x1 = 0.1001 | 1042.3 | 1039.4 | 1036.4 | – | – | –
x1 = 0.2001 | 1061.4 | 1058.3 | 1055 | 46.03 | 44.94 | 44.2
x1 = 0.2999 | 1075 | 1071 | 1066.6 | – | – | –
x1 = 0.3003 | – | – | – | 44.61 | 43.59 | 42.86
x1 = 0.3985 | 1083.6 | 1079.1 | 1074.1 | – | – | –
x1 = 0.3997 | – | – | – | 44.08 | 43.16 | 42.44
x1 = 0.4994 | – | – | – | 43.46 | 43.07 | 42.27
x1 = 0.5023 | 1090.3 | 1085.4 | 1080.2 | – | – | –
x1 = 0.5989 | – | – | – | 43.47 | 42.87 | 42.11
x1 = 0.6002 | 1095.7 | 1090.2 | 1084.3 | – | – | –
x1 = 0.6982 | – | – | – | 43.41 | 42.62 | 42.02
x1 = 0.6986 | 1099.8 | 1093.5 | 1087.4 | – | – | –
x1 = 0.8 | 1103.3 | 1096.6 | 1090.3 | – | – | –
x1 = 0.8017 | – | – | – | 43.35 | 42.54 | 42
x1 = 0.8965 | – | – | – | 43.2 | 42.48 | 41.82
x1 = 0.9001 | 1107.2 | 1100.3 | 1093.8 | – | – | –
x1 = 1 | 1111.2 | 1104.2 | 1097.7 | 42.92 | 42.37 | 42.01

CCO [ethanol] + CCCCn1cc[n+](C)c1.C[C@H](O)C(=O)[O-]
[2], x2 = 0
Settings | mass density [kg/m3] | surface tension liquid-gas [mN/m]
298.15 K | 784.7 | 22.11
308.15 K | 776.2 | 21.13
318.15 K | 767 | 20.48
